In the supplement of paper PMC11616607 one finds drug sensitivity score data, which are given here for 16 molecules.

Each structure is given as a SMILES string.

One test relates to Ovsaho. The test is described as follows: drug sensitivity score (DSS) from 5-point dose-response viability curve (DSS (area-under-curve based score)); higher = more sensitive (stronger growth inhibition or killing); extreme values may be limits of the assay. The settings on record: exposure time: 72 h; concentration range: 5 concentrations over 10,000-fold range. The essentials: (§1)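 Ovarian cancer and normal ovarian cell lines were tested in 384-well plates. Drugs were acoustically dispensed (Echo 550) in DMSO or water at five concentrations spanning a 10,000-fold range, then 1,500 cells per well were added and incubated 3 days at 37°C, 5% CO2. Viability was read by CellTiter-Glo luminescence on a PHERAstar FS. Drug sensitivity score was derived per cell line and drug with Breeze software; higher means more sensitive, zero means no response.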
Molecule `CCn1c(-c2nonc2N)nc2c(C#CC(C)(C)O)ncc(OC[C@H]3CCCNC3)c21` returned a drug sensitivity score of 0.5.

As for `CCn1cc(-c2ccnc3[nH]c(-c4cccc(CN(C)C)c4)cc23)c(-c2ccc(NC(=O)N(C)C)cc2)n1`, the drug sensitivity score was determined as 1.2.

The molecule `CN1CCN(C2CCC(n3cc(-c4ccc(Oc5ccccc5)cc4)c4c(N)ncnc43)CC2)CC1` (configuration not stated) gave a drug sensitivity score of 15.6.

Regarding `CNC(=O)c1ccccc1Nc1nc(Nc2ccc3c(c2OC)CCC[C@H](N2CCN(CCO)CC2)C3)ncc1Cl`, the drug sensitivity score was determined as 8.5.

Take `CNc1nc(-c2ccc3c(N)n[nH]c3c2)cc(N2C[C@@H](C(=O)NC3CCCCC3)CC[C@H]2C)n1`: the drug sensitivity score is 1.1.

`CONC(=O)c1ccccc1Nc1cc(Nc2cc(C)nn2C(C)C)ncc1Cl` yielded a drug sensitivity score of 3.1.

As to `COc1cc2ncnc(Oc3cccc(NC(=O)Nc4cc(C(C)(C)C(F)(F)F)on4)c3)c2cc1OC`, the drug sensitivity score was 0.

The molecule `COc1ccc2[nH]cc(/C=C3\C(=O)Nc4ccc(NC(=O)CCN5CCCCC5)cc43)c2c1` had a drug sensitivity score of 4.6.

As for `C[C@@H](Oc1cc(-n2cnc3ccc(CN4CCN(C)CC4)cc32)sc1C(N)=O)c1ccccc1C(F)(F)F`, the drug sensitivity score is 24.7.

The molecule `O=C(NC[C@H](O)CN1CCc2ccccc2C1)c1cc(NC2COC2)ncn1` showed a drug sensitivity score of 0.

Regarding `O=C1Cc2cc(C(=O)NC3C[C@H]4CC[C@@H](C3)N4S(=O)(=O)CC3CCN(CCCC(F)(F)F)CC3)c(Cl)cc2N1` (some centres not stated), the drug sensitivity score is 0.

`CCN(CC)CCCC(C)Nc1ccnc2cc(Cl)ccc12` (configuration not stated) [Chloroquine] registered a drug sensitivity score of 8.1.

`Nc1ccn([C@@H]2O[C@H](CO)[C@@H](O)[C@@H]2O)c(=O)n1` [Cytarabine] showed a drug sensitivity score of 2.

Molecule `Cc1ccc(NC(=O)c2ccc(CN3CCN(C)CC3)cc2)cc1Nc1nccc(-c2cccnc2)n1` [Imatinib] yielded a drug sensitivity score of 0.

As to `CC[C@H](CO)Nc1nc(NCc2ccccc2)c2ncn(C(C)C)c2n1` [Seliciclib], the drug sensitivity score was 0.1.

The subject of the next test is HOSE1C. The test is described as above. The settings on record: exposure time: 72 h; concentration range: 5 concentrations over 10,000-fold range. The method, boiled down: as §1
Turning to `CC(C)(C)c1cc(NC(=O)Nc2ccc(Oc3ccnc4[nH]c(=O)cnc34)cc2F)n(-c2ccccc2)n1`, the drug sensitivity score was 16.2.

As to `CCn1c(-c2nonc2N)nc2c(C#CC(C)(C)O)ncc(OC[C@H]3CCCNC3)c21`, the drug sensitivity score amounted to 1.4.

`CCn1cc(-c2ccnc3[nH]c(-c4cccc(CN(C)C)c4)cc23)c(-c2ccc(NC(=O)N(C)C)cc2)n1` registered a drug sensitivity score of 1.3.

For `CN1CCN(C2CCC(n3cc(-c4ccc(Oc5ccccc5)cc4)c4c(N)ncnc43)CC2)CC1` (configuration not stated), the drug sensitivity score was found to be 7.8.

`CNC(=O)c1ccccc1Nc1nc(Nc2ccc3c(c2OC)CCC[C@H](N2CCN(CCO)CC2)C3)ncc1Cl` displayed a drug sensitivity score of 4.8.

With `CNc1nc(-c2ccc3c(N)n[nH]c3c2)cc(N2C[C@@H](C(=O)NC3CCCCC3)CC[C@H]2C)n1`, the drug sensitivity score was 4.5.

`CONC(=O)c1ccccc1Nc1cc(Nc2cc(C)nn2C(C)C)ncc1Cl` registered a drug sensitivity score of 0.

The molecule `COc1cc2ncnc(Oc3cccc(NC(=O)Nc4cc(C(C)(C)C(F)(F)F)on4)c3)c2cc1OC` displayed a drug sensitivity score of 1.3.

As for `COc1ccc2[nH]cc(/C=C3\C(=O)Nc4ccc(NC(=O)CCN5CCCCC5)cc43)c2c1`, the drug sensitivity score came out at 4.8.

`C[C@@H](Oc1cc(-n2cnc3ccc(CN4CCN(C)CC4)cc32)sc1C(N)=O)c1ccccc1C(F)(F)F`: the drug sensitivity score was 13.7.

On to `O=C(NC[C@H](O)CN1CCc2ccccc2C1)c1cc(NC2COC2)ncn1`, for which the drug sensitivity score stood at 0.

Molecule `O=C1Cc2cc(C(=O)NC3C[C@H]4CC[C@@H](C3)N4S(=O)(=O)CC3CCN(CCCC(F)(F)F)CC3)c(Cl)cc2N1` (some centres not stated) showed a drug sensitivity score of 0.

As to `CCN(CC)CCCC(C)Nc1ccnc2cc(Cl)ccc12` (configuration not stated) [Chloroquine], the drug sensitivity score is 6.3.

Molecule `Nc1ccn([C@@H]2O[C@H](CO)[C@@H](O)[C@@H]2O)c(=O)n1` [Cytarabine] yielded a drug sensitivity score of 14.

On to `Cc1ccc(NC(=O)c2ccc(CN3CCN(C)CC3)cc2)cc1Nc1nccc(-c2cccnc2)n1` [Imatinib], for which the drug sensitivity score came to 0.2.

`CC[C@H](CO)Nc1nc(NCc2ccccc2)c2ncn(C(C)C)c2n1` [Seliciclib] displayed a drug sensitivity score of 1.1.

Another test has as its system CAOV3. The test is described as above. The settings on record: exposure time: 72 h; concentration range: 5 concentrations over 10,000-fold range. The essentials: as §1
In turn, `CC(C)(C)c1cc(NC(=O)Nc2ccc(Oc3ccnc4[nH]c(=O)cnc34)cc2F)n(-c2ccccc2)n1` registered a drug sensitivity score of 2.8.

In turn, `CCn1c(-c2nonc2N)nc2c(C#CC(C)(C)O)ncc(OC[C@H]3CCCNC3)c21` displayed a drug sensitivity score of 4.3.

With `CCn1cc(-c2ccnc3[nH]c(-c4cccc(CN(C)C)c4)cc23)c(-c2ccc(NC(=O)N(C)C)cc2)n1`, the drug sensitivity score stood at 17.

The molecule `CN1CCN(C2CCC(n3cc(-c4ccc(Oc5ccccc5)cc4)c4c(N)ncnc43)CC2)CC1` (configuration not stated) registered a drug sensitivity score of 11.4.

As to `CNC(=O)c1ccccc1Nc1nc(Nc2ccc3c(c2OC)CCC[C@H](N2CCN(CCO)CC2)C3)ncc1Cl`, the drug sensitivity score was found to be 8.2.

Molecule `CNc1nc(-c2ccc3c(N)n[nH]c3c2)cc(N2C[C@@H](C(=O)NC3CCCCC3)CC[C@H]2C)n1` displayed a drug sensitivity score of 1.9.

With `CONC(=O)c1ccccc1Nc1cc(Nc2cc(C)nn2C(C)C)ncc1Cl`, the drug sensitivity score was determined as 0.

Turning to `COc1cc2ncnc(Oc3cccc(NC(=O)Nc4cc(C(C)(C)C(F)(F)F)on4)c3)c2cc1OC`, the drug sensitivity score was found to be 0.

`COc1ccc2[nH]cc(/C=C3\C(=O)Nc4ccc(NC(=O)CCN5CCCCC5)cc43)c2c1` returned a drug sensitivity score of 6.3.

Molecule `C[C@@H](Oc1cc(-n2cnc3ccc(CN4CCN(C)CC4)cc32)sc1C(N)=O)c1ccccc1C(F)(F)F` gave a drug sensitivity score of 22.4.

Molecule `O=C(NC[C@H](O)CN1CCc2ccccc2C1)c1cc(NC2COC2)ncn1` returned a drug sensitivity score of 0.

As to `O=C1Cc2cc(C(=O)NC3C[C@H]4CC[C@@H](C3)N4S(=O)(=O)CC3CCN(CCCC(F)(F)F)CC3)c(Cl)cc2N1` (some centres not stated), the drug sensitivity score came to 0.

The molecule `CCN(CC)CCCC(C)Nc1ccnc2cc(Cl)ccc12` (configuration not stated) [Chloroquine] came in with a drug sensitivity score of 7.2.

Molecule `Nc1ccn([C@@H]2O[C@H](CO)[C@@H](O)[C@@H]2O)c(=O)n1` [Cytarabine] returned a drug sensitivity score of 14.9.

For the molecule `Cc1ccc(NC(=O)c2ccc(CN3CCN(C)CC3)cc2)cc1Nc1nccc(-c2cccnc2)n1` [Imatinib], the drug sensitivity score was 0.

Molecule `CC[C@H](CO)Nc1nc(NCc2ccccc2)c2ncn(C(C)C)c2n1` [Seliciclib] returned a drug sensitivity score of 0.4.
